{"source": "patent US20110159515A1", "about": "“COMPOSITIONS AND METHODS FOR THE RAPID GROWTH AND DETECTION OF MICROORGANISMS” (SOLUS SCIENTIFIC SOLUTIONS LIMITED, priority 2008, published 2011)", "experiment_in_all_cases": "Direct binding Salmonella assay (chemiluminescence immunosorbent)", "key": {"[1]": {"test_system": "S. aberdeen", "method": "(§1) After 5 hours of culture, a 2 ml aliquot of the sample was removed and SDS was added to a final concentration of 0.5% (w/v). The sample was heated to 100° C. for 5 minutes and allowed to cool. One hundred microlitres of each test sample was added directly to a well of a solid white 96 well high binding microtitre plate (Greiner Bio One) and incubated at 37° C. for 30 minutes. During incubation, the lipid A portion of the LPS binds to the surface of the plate via non-covalent hydrophobic interactions (FIG. 1a (1), FIG. 1b(1)).\n(§2) The final concentration of antibody per well was 50 ng. The plate-bound sample (Salmonella LPS/core oligosaccharide) and antibody were incubated in the coated wells for 30 minutes as 37° C. Following incubation, plates were washed three times in wash buffer and pat dried prior to detection (FIG. 1a(2), FIG. 1b(2)).\n(§3) When the anti-Salmonella is directly labelled with acridinium ester, plates were placed into a luminometer. 30 μl of trigger solution A and 60 μl of trigger solution B was added to each well of the microtitre plate to initiate light output from conjugated acridinium ester (FIG. 1a(3)). The luminometer settings were as follows:\n(§4) When the anti-Salmonella antibody is not labelled, a second binding member, a goat anti-mouse IgG2b conjugate is used. Post column IgG2b was diluted 1:100 in a diluent comprising 3% (w/v) non-fat milk powder and 0.05% (v/v) Tween 20 and 100 ul of this solution was added to each well of the plate (FIG. 1b(3)). Following incubation at 37° C. for 60 minutes the plate was washed four times in wash buffer, dried and read as above (FIG. 1b(4)).\nThe wells of an assay plate are coated with standard concentrations of bacteria for 1 hour at 37° C. These standard concentrations are: 10^6, 10^5, 5×10^4, 2.5×10^4, 10^4 and 5×10^3 and blank wells containing 10^6 E. coli. The fractions to be tested are diluted 1:100 in assay buffer and […] is added to each well and incubated at 37° C. for 20 minutes. The wells are then read on the luminometer, as above."}, "[2]": {"test_system": "E. coli"}, "[3]": {"test_system": "L. innocua", "settings": "10^6 L. innocua", "method": "as §1, with “The” for “After 5 hours of culture, a 2 ml aliquot of the sample was removed and SDS was added to a final concentration of 0.5% (w/v). The”\nas §2, §3, §4\nMonoclonal antibody (1:100 dilution) was incubated with either Salmonella or Listeria to determine optimum incubation times:\nMonoclonal antibody (1:200 dilution) was incubated with either Salmonella or Listeria to determine optimum incubation times: […]"}}, "data": [{"molecule": "CCCCCCCCCCCCOS(=O)(=O)[O-].[Na+]", "note": "[SDS, sodium dodecyl sulphate]", "values": [{"measurement": "signal, direct binding Salmonella assay", "setting": "[1]; 0.5% SDS (second block), conjugate 1:100, 5 × 10^4 S. aberdeen, black and white plates", "result": "2,213 ± 170"}, {"measurement": "signal, release and detection of core oligosaccharide", "setting": "[1]; 0.5% SDS, 10^4 bacteria (species not given)", "result": 495603, "unit": "relative light units"}, {"measurement": "enhancement of binding between binding member (antibody) and epitope", "setting": "[1]; direct assay", "result": "≤ 10", "unit": "fold"}, {"measurement": "signal, direct binding Salmonella assay", "setting": "[2]; 0% SDS, conjugate 1:100, 10^6 E. coli, black and white plates", "result": "579 ± 37"}, {"measurement": "signal, direct binding Salmonella assay", "setting": "[2]; 0.1% (w/v) SDS, conjugate 1:100, 10^6 E. coli, white plate, Lucy I", "result": "4,151 ± 256^"}, {"measurement": "signal, direct binding Salmonella assay", "setting": "[2]; 0.1% SDS (first block), conjugate 1:100, 10^6 E. coli, black and white plates", "result": "579 ± 37"}, {"measurement": "signal, direct binding Salmonella assay", "setting": "[2]; 0.1% SDS (second block), conjugate 1:100, 10^6 E. coli, black and white plates", "result": "658 ± 108"}, {"measurement": "signal, direct binding Salmonella assay", "setting": "[2]; 0.2% (w/v) SDS, conjugate 1:100, 10^6 E. coli, white plate, Lucy I", "result": "3,322 ± 479"}, {"measurement": "signal, direct binding Salmonella assay", "setting": "[2]; 0.3% SDS, conjugate 1:100, 10^6 E. coli, white plate, Lucy I", "result": "2,491 ± 107"}, {"measurement": "signal, direct binding Salmonella assay", "setting": "[2]; 0.4% SDS, conjugate 1:100, 10^6 E. coli, white plate, Lucy I", "result": "3,197 ± 5"}, {"measurement": "signal, direct binding Salmonella assay", "setting": "[2]; 0.5% (w/v) SDS (first block), conjugate 1:100, 10^6 E. coli, black and white plates", "result": "684 ± 88"}, {"measurement": "signal, direct binding Salmonella assay", "setting": "[2]; 0.5% (w/v) SDS, conjugate 1:50, E. coli 10^6, black and white plate, tube luminometer", "result": "958 ± 242"}, {"measurement": "signal, direct binding Salmonella assay", "setting": "[2]; 0.5% SDS (second block), conjugate 1:100, 10^6 E. coli, black and white plates", "result": "714 ± 74"}, {"measurement": "signal, direct binding Salmonella assay", "setting": "[2]; 0.5% SDS, conjugate 1:100, 10^6 E. coli, black and white plate, tube luminometer", "result": "922 ± 78"}, {"measurement": "signal, direct binding Salmonella assay", "setting": "[2]; 0.5% SDS, conjugate 1:100, 10^6 E. coli, white plate, Lucy I", "result": "4,574 ± 1,885"}, {"measurement": "signal, direct binding Salmonella assay", "setting": "[2]; 0.5% SDS, conjugate 1:150, 10^6 E. coli, black and white plate, tube luminometer", "result": "707 ± 11"}, {"measurement": "signal, release and detection of core oligosaccharide", "setting": "[3]; 0.1% SDS", "result": 7863, "unit": "relative light units"}, {"measurement": "signal, release and detection of core oligosaccharide", "setting": "[3]; 0.5% SDS", "result": 8051, "unit": "relative light units"}]}]}
